In DBAASP:
In brackets after ≈: the same amount, converted by molar mass.

What was measured:
Assay in all cases: ≥ marks a high value that may be exact or a test limit, other limits are often not marked, values filed in µg/mL are converted to µM
[1] = system: Candida albicans F7-39/IDE99
Staphylococcus aureus = system: Staphylococcus aureus
[2] = system: Micrococcus luteus CCM 144
Escherichia coli B = system: Escherichia coli B
Staphylococcus aureus 1 = system: Staphylococcus aureus 1
Pseudomonas aeruginosa = system: Pseudomonas aeruginosa
[3] = system: Staphylococcus epidermidis
[4] = system: Staphylococcus aureus ATCC 43300
Bacillus subtilis 168 = system: Bacillus subtilis 168
[5] = system: Pseudomonas aeruginosa ATCC 27853
[6] = system: Staphylococcus aureus ATCC 33591
[7] = system: Staphylococcus aureus ATCC 25923
[8] = system: Staphylococcus epidermidis ATCC 35984
[9] = system: Pectobacterium carotovorum
Bacillus subtilis = system: Bacillus subtilis

| Structure (SMILES) | MIC [1] [µM] | MIC (Staphylococcus aureus) [µM] | MIC [2] [µM] | MIC (Escherichia coli B) [µM] | MIC (Staphylococcus aureus 1) [µM] | MIC (Pseudomonas aeruginosa) [µM] | MIC [3] [µM] | MIC [4] [µM] | MIC (Bacillus subtilis 168) [µM] | MIC [5] [µM] | MIC [6] [µM] | MIC [7] [µM] | MIC [8] [µM] | MIC [9] [µM] | MIC (Bacillus subtilis) [µM] |
| --- | --- | --- | --- | --- | --- | --- | --- | --- | --- | --- | --- | --- | --- | --- | --- |
| CC(C)C[C@H](NC(=O)[C@H](Cc1ccccc1)NC(=O)[C@H](CCCCN)NC(=O)CN)C(=O)N[C@@H](CCCCN)C(=O)N[C@@H](CCCCN)C(=O)N[C@@H](C)C(=O)N[C@@H](CCCCN)C(=O)N[C@@H](CCCCN)C(=O)N[C@@H](Cc1ccccc1)C(=O)NCC(=O)N[C@@H](CCCCN)C(N)=O [GKFLKKAKKFGK] | – | – | – | – | – | – | – | – | – | > 371 | ≥ 371 | > 371 | ≥ 262 | – | – |
| CC[C@H](C)[C@H](NC(=O)[C@H](CO)NC(=O)[C@H](CCCN=C(N)N)NC(=O)CNC(=O)[C@H](CCC(=O)O)NC(=O)[C@H](CC(C)C)NC(=O)[C@H](CCC(=O)O)NC(=O)[C@H](CC(C)C)NC(=O)[C@H](CO)NC(=O)[C@H](CC(=O)O)NC(=O)[C@H](Cc1ccc(O)cc1)NC(=O)[C@H](CCCN=C(N)N)NC(=O)[C@H](Cc1ccc(O)cc1)NC(=O)CNC(=O)[C@H](Cc1ccccc1)NC(=O)[C@@H](N)CCCCN)C(=O)N[C@@H](CO)C(=O)N[C@@H](CCCN=C(N)N)C(=O)N[C@H](C(=O)N[C@@H](CC(=O)O)C(=O)N[C@@H](CCC(=O)O)C(=O)N[C@@H](CC(C)C)C(=O)N[C@H](C(=O)N[C@@H](CCC(N)=O)C(=O)N[C@@H](CCC(N)=O)C(=O)N[C@@H](CCCN=C(N)N)C(=O)O)[C@@H](C)CC)[C@@H](C)CC [KFGYRYDSLELEGRSISRIDELIQQR] | – | – | – | – | – | – | – | – | – | – | – | – | – | 0.632 (≈ 2.01 µg/mL) | 2.45 (≈ 7.77 µg/mL) |
| CC(C)C[C@H](NC(=O)[C@H](Cc1ccccc1)NC(=O)[C@@H](N)CCCCN)C(=O)N[C@@H](CCCCN)C(=O)N[C@@H](CCCCN)C(=O)N[C@@H](C)C(=O)N[C@@H](CCCCN)C(=O)N[C@@H](CCCCN)C(=O)N[C@@H](Cc1ccccc1)C(=O)NCC(=O)N[C@@H](CCCCN)C(=O)N[C@@H](C)C(N)=O [KFLKKAKKFGKA] | – | – | – | – | – | – | – | – | – | 367 (≈ 512 µg/mL) | ≥ 367 | > 367 | ≥ 367 | – | – |

Continued, values first:

| MIC [1] [µM] | MIC (Staphylococcus aureus) [µM] | MIC [2] [µM] | MIC (Escherichia coli B) [µM] | MIC (Staphylococcus aureus 1) [µM] | MIC (Pseudomonas aeruginosa) [µM] | MIC [3] [µM] | MIC [4] [µM] | MIC (Bacillus subtilis 168) [µM] | MIC [5] [µM] | MIC [6] [µM] | MIC [7] [µM] | MIC [8] [µM] | MIC [9] [µM] | MIC (Bacillus subtilis) [µM] | Structure (SMILES) |
| --- | --- | --- | --- | --- | --- | --- | --- | --- | --- | --- | --- | --- | --- | --- | --- |
| 17 (≈ 31 µg/mL) | 16 (≈ 29.2 µg/mL) | 3 (≈ 5.48 µg/mL) | 11 (≈ 20.1 µg/mL) | 6.6 (≈ 12 µg/mL) | 5.9 (≈ 10.8 µg/mL) | 2 (≈ 3.65 µg/mL) | 16 (≈ 29.2 µg/mL) | 7 (≈ 12.8 µg/mL) | 4 (≈ 7.3 µg/mL) | – | – | – | – | – | CC[C@H](C)[C@H](NC(=O)CN)C(=O)N[C@@H](CC(C)C)C(=O)N[C@@H](CO)C(=O)N[C@@H](CO)C(=O)N[C@@H](Cc1c[nH]c2ccccc12)C(=O)N[C@@H](CC(C)C)C(=O)N[C@@H](CCCCN)C(=O)N[C@@H](CCCCN)C(=O)N[C@@H](CC(C)C)C(=O)N[C@@H](CCCCN)C(=O)N[C@@H](CCCCN)C(=O)N[C@H](C(=O)N[C@H](C(=O)N[C@@H](C)C(=O)N[C@@H](CCCCN)C(N)=O)[C@@H](C)CC)[C@@H](C)CC [GILSSWLKKLKKIIAK] |
| 5 (≈ 8.78 µg/mL) | 90 (≈ 158 µg/mL) | 3 (≈ 5.27 µg/mL) | 20 (≈ 35.1 µg/mL) | ≥ 77 | 46 (≈ 80.7 µg/mL) | 11 (≈ 19.3 µg/mL) | 85 (≈ 149 µg/mL) | 7 (≈ 12.3 µg/mL) | 23 (≈ 40.4 µg/mL) | – | – | – | – | – | CC[C@H](C)[C@H](NC(=O)CN)C(=O)N[C@@H](CCSC)C(=O)N[C@@H](CO)C(=O)N[C@@H](CO)C(=O)N[C@@H](CC(C)C)C(=O)N[C@@H](CCSC)C(=O)N[C@@H](CCCCN)C(=O)N[C@@H](CCCCN)C(=O)N[C@@H](CC(C)C)C(=O)N[C@@H](C)C(=O)N[C@@H](C)C(=O)N[C@@H](Cc1cnc[nH]1)C(=O)N[C@H](C(=O)N[C@@H](CCCCN)C(=O)N[C@@H](CCCCN)C(N)=O)[C@@H](C)CC [GIMSSLMKKLAAHIKK] |
